Earlier results as cited in patent US20050220810A1, “Anti-aging preparation” (Shiseido Company, Ltd., priority 2002, published 2005).

System: vascular endothelial cell HMVEC
Settings: general statement on positive controls of TSP-1 induction; no test described

## bFGF: fibroblast growth factor, a positive control of the TSP-1 inducing substance
  induction of cell death in vascular endothelial cells: does not induce cell death
